Data published in PubChem BioAssay (NCI).
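Five compound concentrations were applied to cells in 96-well plates for 48 hours; endpoints were derived by simple linear interpolation of the resulting dose-response curve. The concentration for full growth arrest is given as TGI.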

Columns and labels:
Experiment in all cases: inhibition of tumour cell growth, NCI panel, 48 h
SK-MEL-28 melanoma = system: SK-MEL-28 melanoma
ACHN renal = system: ACHN renal
SNB-19 CNS = system: SNB-19 CNS
SF-539 CNS = system: SF-539 CNS
OVCAR-5 ovarian = system: OVCAR-5 ovarian
SK-MEL-2 melanoma = system: SK-MEL-2 melanoma
KM12 colon = system: KM12 colon
OVCAR-8 ovarian = system: OVCAR-8 ovarian
COLO 205 colon = system: COLO 205 colon
SF-295 CNS = system: SF-295 CNS
MALME-3M melanoma = system: MALME-3M melanoma
HCC-2998 colon = system: HCC-2998 colon
EKVX NSCLC = system: EKVX NSCLC
M14 melanoma = system: M14 melanoma
PC-3 prostate = system: PC-3 prostate
NCI-H226 lung = system: NCI-H226 lung
T-47D breast = system: T-47D breast

## Nc1csc(-c2scc3c2OCCO3)c1N
SK-MEL-28 melanoma
  TGI: 49.5 µM
ACHN renal
  TGI: > 100 µM
SNB-19 CNS
  TGI: > 100 µM
SF-539 CNS
  TGI: 47.4 µM
OVCAR-5 ovarian
  TGI: 39.9 µM
SK-MEL-2 melanoma
  TGI: 40 µM
KM12 colon
  TGI: 56.5 µM
OVCAR-8 ovarian
  TGI: 40.1 µM
COLO 205 colon
  TGI: 91.4 µM
SF-295 CNS
  TGI: 38.3 µM
MALME-3M melanoma
  TGI: 36 µM
HCC-2998 colon
  TGI: 49.8 µM
EKVX NSCLC
  TGI: 72.3 µM
M14 melanoma
  TGI: 35.2 µM
PC-3 prostate
  TGI: 62.5 µM
NCI-H226 lung
  TGI: 42.9 µM

## O=C1/C(=C\c2cccc(Oc3ccccc3)c2)SC(c2ccccc2)N1Cc1ccccc1 (stereo not given)
SK-MEL-28 melanoma
  TGI: > 100 µM
ACHN renal
  TGI: > 100 µM
SNB-19 CNS
  TGI: 92.8 µM
SF-539 CNS
  TGI: 37.3 µM
OVCAR-5 ovarian
  TGI: > 100 µM
SK-MEL-2 melanoma
  TGI: 45.7 µM
KM12 colon
  TGI: 83.8 µM
OVCAR-8 ovarian
  TGI: 68.9 µM
COLO 205 colon
  TGI: 22 µM
SF-295 CNS
  TGI: > 100 µM
MALME-3M melanoma
  TGI: 57.7 µM
HCC-2998 colon
  TGI: > 100 µM
EKVX NSCLC
  TGI: > 100 µM
M14 melanoma
  TGI: 66.7 µM
T-47D breast
  TGI: 98.3 µM
NCI-H226 lung
  TGI: 90.9 µM

## CN(C)c1ccc(C2=C([O-])c3cc(-[n+]4ccccc4)ccc3C2=O)cc1
SK-MEL-28 melanoma
  TGI: > 100 µM
ACHN renal
  TGI: > 100 µM
SNB-19 CNS
  TGI: > 100 µM
SF-539 CNS
  TGI: > 100 µM
OVCAR-5 ovarian
  TGI: > 100 µM
KM12 colon
  TGI: > 100 µM
OVCAR-8 ovarian
  TGI: > 100 µM
COLO 205 colon
  TGI: > 100 µM
SF-295 CNS
  TGI: > 100 µM
MALME-3M melanoma
  TGI: > 100 µM
HCC-2998 colon
  TGI: > 100 µM
EKVX NSCLC
  TGI: > 100 µM
PC-3 prostate
  TGI: > 100 µM
NCI-H226 lung
  TGI: > 100 µM

## Cc1ccc([N+](=O)[O-])cc1S(=O)(=O)Nc1ccc(C2=NN(C(=O)c3ccccc3)C(c3ccccc3O)C2)cc1 (stereo not given)
SK-MEL-28 melanoma
  TGI: > 100 µM
ACHN renal
  TGI: 47.8 µM
SNB-19 CNS
  TGI: > 100 µM
SF-539 CNS
  TGI: 38.4 µM
OVCAR-5 ovarian
  TGI: 60.6 µM
SK-MEL-2 melanoma
  TGI: 46.4 µM
KM12 colon
  TGI: > 100 µM
OVCAR-8 ovarian
  TGI: 57.7 µM
COLO 205 colon
  TGI: 31.9 µM
SF-295 CNS
  TGI: > 100 µM
MALME-3M melanoma
  TGI: 31.5 µM
EKVX NSCLC
  TGI: 31 µM
M14 melanoma
  TGI: 48.6 µM
PC-3 prostate
  TGI: 29 µM
T-47D breast
  TGI: 30.1 µM
NCI-H226 lung
  TGI: 58.6 µM

## FC(F)(F)c1nc2c(ccc3[nH]c4c(-c5ccccc5)nccc4c32)[nH]1
SK-MEL-28 melanoma
  TGI: > 100 µM
ACHN renal
  TGI: > 100 µM
SNB-19 CNS
  TGI: > 100 µM
SF-539 CNS
  TGI: > 100 µM
OVCAR-5 ovarian
  TGI: > 100 µM
SK-MEL-2 melanoma
  TGI: > 100 µM
KM12 colon
  TGI: > 100 µM
OVCAR-8 ovarian
  TGI: > 100 µM
COLO 205 colon
  TGI: > 100 µM
SF-295 CNS
  TGI: > 100 µM
MALME-3M melanoma
  TGI: > 100 µM
HCC-2998 colon
  TGI: > 100 µM
EKVX NSCLC
  TGI: > 100 µM
M14 melanoma
  TGI: > 100 µM
NCI-H226 lung
  TGI: > 100 µM

## CC1(C)OC2C(O1)[C@H]1OC(C(Cl)(Cl)Cl)=N[C@H]1C(I)[C@H]2N1C(=O)c2ccccc2C1=O (stereo not given in full)
SK-MEL-28 melanoma
  TGI: > 100 µM
ACHN renal
  TGI: > 100 µM
SNB-19 CNS
  TGI: > 100 µM
SF-539 CNS
  TGI: > 100 µM
OVCAR-5 ovarian
  TGI: > 100 µM
KM12 colon
  TGI: > 100 µM
OVCAR-8 ovarian
  TGI: > 100 µM
COLO 205 colon
  TGI: > 100 µM
SF-295 CNS
  TGI: > 100 µM
EKVX NSCLC
  TGI: > 100 µM
M14 melanoma
  TGI: > 100 µM
NCI-H226 lung
  TGI: > 100 µM

## COc1cccc(C=C(C#N)C#N)c1OC
SK-MEL-28 melanoma
  TGI: > 100 µM
ACHN renal
  TGI: > 100 µM
SNB-19 CNS
  TGI: > 100 µM
SF-539 CNS
  TGI: > 100 µM
OVCAR-5 ovarian
  TGI: > 100 µM
KM12 colon
  TGI: > 100 µM
OVCAR-8 ovarian
  TGI: > 100 µM
COLO 205 colon
  TGI: > 100 µM
SF-295 CNS
  TGI: > 100 µM
MALME-3M melanoma
  TGI: > 100 µM
HCC-2998 colon
  TGI: > 100 µM
EKVX NSCLC
  TGI: > 100 µM
M14 melanoma
  TGI: > 100 µM
PC-3 prostate
  TGI: > 100 µM
NCI-H226 lung
  TGI: > 100 µM

## Clc1cccc(/C=c2\nc(-c3ccccc3)n3c2nc2ccccc23)c1
SK-MEL-28 melanoma
  TGI: > 100 µM
SNB-19 CNS
  TGI: > 100 µM
SF-539 CNS
  TGI: > 100 µM
OVCAR-5 ovarian
  TGI: > 100 µM
SK-MEL-2 melanoma
  TGI: > 100 µM
KM12 colon
  TGI: > 100 µM
OVCAR-8 ovarian
  TGI: > 100 µM
COLO 205 colon
  TGI: > 100 µM
SF-295 CNS
  TGI: > 100 µM
MALME-3M melanoma
  TGI: > 100 µM
EKVX NSCLC
  TGI: > 100 µM
M14 melanoma
  TGI: > 100 µM
PC-3 prostate
  TGI: > 100 µM
NCI-H226 lung
  TGI: > 100 µM

## COc1ccc(C2S/C(=C\c3ccc([N+](=O)[O-])cc3)C(=O)N2NC(=O)Cc2ccccc2)cc1 (stereo not given)
SK-MEL-28 melanoma
  TGI: > 100 µM
ACHN renal
  TGI: > 100 µM
SF-539 CNS
  TGI: > 100 µM
OVCAR-5 ovarian
  TGI: > 100 µM
SK-MEL-2 melanoma
  TGI: > 100 µM
KM12 colon
  TGI: > 100 µM
OVCAR-8 ovarian
  TGI: > 100 µM
COLO 205 colon
  TGI: > 100 µM
SF-295 CNS
  TGI: > 100 µM
MALME-3M melanoma
  TGI: > 100 µM
M14 melanoma
  TGI: > 100 µM
NCI-H226 lung
  TGI: > 100 µM

## CN(C(=O)C12C3(C(=O)O)C4C5(C(=O)O)C3C1(C(=O)O)C5C42C(=O)O)C(C)(C)C (stereo not given)
SK-MEL-28 melanoma
  TGI: > 100 µM
ACHN renal
  TGI: > 100 µM
SNB-19 CNS
  TGI: > 100 µM
SF-539 CNS
  TGI: > 100 µM
OVCAR-5 ovarian
  TGI: > 100 µM
SK-MEL-2 melanoma
  TGI: > 100 µM
KM12 colon
  TGI: > 100 µM
OVCAR-8 ovarian
  TGI: > 100 µM
COLO 205 colon
  TGI: > 100 µM
SF-295 CNS
  TGI: > 100 µM
HCC-2998 colon
  TGI: > 100 µM
EKVX NSCLC
  TGI: > 100 µM
M14 melanoma
  TGI: > 100 µM
PC-3 prostate
  TGI: > 100 µM
T-47D breast
  TGI: > 100 µM

## OCCCN=C1N=C(Cl)/C(=C\c2ccccc2)N1
SK-MEL-28 melanoma
  TGI: > 100 µM
ACHN renal
  TGI: > 100 µM
SNB-19 CNS
  TGI: > 100 µM
SF-539 CNS
  TGI: > 100 µM
OVCAR-5 ovarian
  TGI: > 100 µM
KM12 colon
  TGI: > 100 µM
OVCAR-8 ovarian
  TGI: > 100 µM
COLO 205 colon
  TGI: > 100 µM
SF-295 CNS
  TGI: > 100 µM
MALME-3M melanoma
  TGI: > 100 µM
HCC-2998 colon
  TGI: > 100 µM
EKVX NSCLC
  TGI: > 100 µM
M14 melanoma
  TGI: > 100 µM
T-47D breast
  TGI: > 100 µM
NCI-H226 lung
  TGI: > 100 µM

## CCOC(=O)/C=C(\C(=O)OCC)n1cc(C)c(=O)n(Cc2cn(COCCOC(C)=O)nn2)c1=O
SK-MEL-28 melanoma
  TGI: 48.1 µM
ACHN renal
  TGI: 19.5 µM
SNB-19 CNS
  TGI: 39 µM
SF-539 CNS
  TGI: 9.74 µM
OVCAR-5 ovarian
  TGI: 29.5 µM
SK-MEL-2 melanoma
  TGI: 34.5 µM
KM12 colon
  TGI: 30.4 µM
OVCAR-8 ovarian
  TGI: 21.3 µM
COLO 205 colon
  TGI: 11.1 µM
SF-295 CNS
  TGI: 46.3 µM
HCC-2998 colon
  TGI: 43 µM
EKVX NSCLC
  TGI: 22.5 µM
PC-3 prostate
  TGI: 38.6 µM
T-47D breast
  TGI: > 100 µM

## CN(C)CCSC(=Nc1ccccc1)n1cccc1
SK-MEL-28 melanoma
  TGI: > 100 µM
ACHN renal
  TGI: > 100 µM
SNB-19 CNS
  TGI: > 100 µM
SF-539 CNS
  TGI: > 100 µM
OVCAR-5 ovarian
  TGI: > 100 µM
SK-MEL-2 melanoma
  TGI: > 100 µM
KM12 colon
  TGI: > 100 µM
OVCAR-8 ovarian
  TGI: > 100 µM
COLO 205 colon
  TGI: > 100 µM
SF-295 CNS
  TGI: > 100 µM
MALME-3M melanoma
  TGI: > 100 µM
M14 melanoma
  TGI: > 100 µM
NCI-H226 lung
  TGI: 75.7 µM

## COc1ccc(/C=N/NC(=O)CSc2nc(-c3ccccc3)c(-c3ccccc3)[nH]2)cc1OC
SK-MEL-28 melanoma
  TGI: 89.8 µM
ACHN renal
  TGI: 77.2 µM
SNB-19 CNS
  TGI: > 100 µM
SF-539 CNS
  TGI: 45.6 µM
OVCAR-5 ovarian
  TGI: 64 µM
SK-MEL-2 melanoma
  TGI: 39.1 µM
KM12 colon
  TGI: 34 µM
OVCAR-8 ovarian
  TGI: 36.3 µM
COLO 205 colon
  TGI: 49.2 µM
SF-295 CNS
  TGI: 55.9 µM
MALME-3M melanoma
  TGI: 35.8 µM
EKVX NSCLC
  TGI: 72.5 µM
M14 melanoma
  TGI: 33.8 µM
NCI-H226 lung
  TGI: 80.4 µM

## COC(=O)[C@H]1C2CC[C@@H]3C45C[C@@H](c6ccoc6)O[C@@H]4O[C@@H](O2)C31CCC5C (stereo not given in full)
ACHN renal
  TGI: > 100 µM
SNB-19 CNS
  TGI: > 100 µM
SF-539 CNS
  TGI: > 100 µM
OVCAR-5 ovarian
  TGI: > 100 µM
SK-MEL-2 melanoma
  TGI: > 100 µM
KM12 colon
  TGI: > 100 µM
OVCAR-8 ovarian
  TGI: > 100 µM
COLO 205 colon
  TGI: > 100 µM
SF-295 CNS
  TGI: > 100 µM
MALME-3M melanoma
  TGI: > 100 µM
HCC-2998 colon
  TGI: > 100 µM
EKVX NSCLC
  TGI: > 100 µM
M14 melanoma
  TGI: > 100 µM
NCI-H226 lung
  TGI: > 100 µM
